In the supplement of paper PMC10307832:

How the values were obtained:
BI-D1870 + Foretinib = compound: CC(C)CCN1c2nc(Nc3cc(F)c(O)c(F)c3)ncc2N(C)C(=O)C1C [BI-D1870] + COc1cc2c(Oc3ccc(NC(=O)C4(C(=O)Nc5ccc(F)cc5)CC4)cc3F)ccnc2cc1OCCCN1CCOCC1 [Foretinib] (partner 0.25 µM); experiment: relative viability (nuclei count vs DMSO), 5 days (fraction); higher = more cells survive
Procedure, shortened: (§1)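 Five library-drug doses in √10 steps were combined with a fixed anchor-drug dose, or a single drug was given alone, by pin tool to lung cancer cell lines in 1536-well plates the day after seeding. Nuclei were stained and counted after 5 days. Relative viability is the nuclei count in treated wells over that in vehicle wells, taken as the median of duplicate plates.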

Zebularine + Tozasertib = compound: O=c1ncccn1[C@@H]1O[C@H](CO)[C@@H](O)[C@H]1O [Zebularine] + Cc1cc(Nc2cc(N3CCN(C)CC3)nc(Sc3ccc(NC(=O)C4CC4)cc3)n2)n[nH]1 [Tozasertib] (partner 0.1 µM); experiment: as above
Procedure, shortened: as §1

Row | Cell Line | relative viability (BI-D1870 + Foretinib; first compound 0.04 µM) | relative viability (BI-D1870 + Foretinib; first compound 0.1265 µM) | relative viability (BI-D1870 + Foretinib; first compound 0.4 µM) | relative viability (BI-D1870 + Foretinib; first compound 1.265 µM) | relative viability (BI-D1870 + Foretinib; first compound 4 µM) | relative viability (Zebularine + Tozasertib; first compound 1 µM) | relative viability (Zebularine + Tozasertib; first compound 3.162 µM) | relative viability (Zebularine + Tozasertib; first compound 10 µM) | relative viability (Zebularine + Tozasertib; first compound 31.62 µM) | relative viability (Zebularine + Tozasertib; first compound 100 µM)
1 | 201T | 1.22 | 1.02 | 1 | 1.29 | 1.05 | 1.03 | 0.938 | 0.647 | 0.977 | 0.595
2 | NCI-H2170 | 1.06 | 0.971 | 1.05 | 0.934 | 0.957 | 0.815 | 0.708 | 0.655 | 0.636 | 0.285
3 | NCI-H460 | 1.09 | 0.869 | 0.974 | 1.06 | 0.305 | 0.61 | 0.499 | 0.529 | 0.193 | 0.0561
4 | NCI-H661 | 1.02 | 0.989 | 1.04 | 1.03 | 0.969 | 0.338 | 0.346 | 0.381 | 0.361 | 0.396
5 | HCC-15 | 1.11 | 0.911 | 1 | 0.921 | 0.599 | 0.308 | 0.414 | 0.339 | 0.386 | 0.179
6 | ABC-1 | 1.16 | 0.984 | 1.1 | 1.42 | 0.913 | 0.193 | 0.196 | 0.164 | 0.189 | 0.148
7 | LCLC-103H | 0.842 | 0.662 | 0.777 | 0.866 | 0.566 | 0.448 | 0.43 | 0.402 | 0.471 | 0.355
8 | NCI-H441 | 1.08 | 0.787 | 1.05 | 1.05 | 0.804 | 0.825 | 0.711 | 0.334 | 0.221 | 0.344
9 | EPLC-272H | 0.786 | 0.539 | 0.602 | 0.612 | 0.508 | 0.222 | 0.179 | 0.156 | 0.317 | 0.256
